Measured values as given in the NIST ThermoML archive (doi:10.1016/j.jct.2013.10.031).
± gives the expanded uncertainty stated by the source.

Experiment: wn = mass fraction of the nth substance listed
Conditions: Gas, Burnett expansion method

FCC(F)(F)F [1,1,1,2-tetrafluoroethane] + CCC
Conditions	mass density [kg/m3]
272.14 K, 376.9 kPa, w2 = 0.4	12.2714 ± 0.73
272.14 K, 486.9 kPa, w2 = 0.4	16.3457 ± 0.75
275.01 K, 306 kPa, w2 = 0.6	8.178 ± 0.58
275.01 K, 398.5 kPa, w2 = 0.6	10.8743 ± 0.61
275.01 K, 514 kPa, w2 = 0.6	14.4598 ± 0.63
275.02 K, 233.7 kPa, w2 = 0.6	6.1499 ± 0.56
275.03 K, 233.5 kPa, w2 = 0.55	6.3604 ± 0.58
275.04 K, 177.6 kPa, w2 = 0.55	4.7832 ± 0.56
275.04 K, 259 kPa, w2 = 0.65	6.6072 ± 0.55
275.04 K, 397.9 kPa, w2 = 0.55	11.2458 ± 0.63
275.04 K, 513.5 kPa, w2 = 0.55	14.954 ± 0.67
275.05 K, 134.8 kPa, w2 = 0.55	3.597 ± 0.55
275.05 K, 197.5 kPa, w2 = 0.65	4.9688 ± 0.53
275.05 K, 305.8 kPa, w2 = 0.55	8.4571 ± 0.6
275.05 K, 338.2 kPa, w2 = 0.65	8.7857 ± 0.57
275.06 K, 150.2 kPa, w2 = 0.65	3.7365 ± 0.52
275.06 K, 438.6 kPa, w2 = 0.65	11.682 ± 0.58
276.01 K, 525 kPa, w2 = 0.5	16.127 ± 0.68
276.07 K, 240.8 kPa, w2 = 0.5	6.8235 ± 0.6
276.07 K, 314.5 kPa, w2 = 0.5	9.08914 ± 0.64
276.08 K, 138.3 kPa, w2 = 0.5	3.84563 ± 0.58
276.08 K, 182.4 kPa, w2 = 0.5	5.12246 ± 0.58
276.08 K, 408.6 kPa, w2 = 0.5	12.1069 ± 0.68
276.09 K, 131.9 kPa, w2 = 0.4	3.96275 ± 0.63
276.09 K, 173.8 kPa, w2 = 0.4	5.27854 ± 0.64
276.09 K, 228.4 kPa, w2 = 0.4	7.03132 ± 0.66
276.09 K, 299.1 kPa, w2 = 0.4	9.36594 ± 0.68
276.09 K, 389.5 kPa, w2 = 0.4	12.4758 ± 0.72
276.09 K, 503.4 kPa, w2 = 0.4	16.618 ± 0.74
276.23 K, 613 kPa, w2 = 0.45	19.9443 ± 0.76
276.24 K, 369.2 kPa, w2 = 0.45	11.24 ± 0.67
276.25 K, 215.6 kPa, w2 = 0.45	6.3345 ± 0.62
276.25 K, 282.9 kPa, w2 = 0.45	8.43787 ± 0.64
276.25 K, 478.6 kPa, w2 = 0.45	14.9718 ± 0.72
276.26 K, 163.8 kPa, w2 = 0.45	4.75547 ± 0.61
278.98 K, 613.4 kPa, w2 = 0.55	18.0169 ± 0.75
278.99 K, 431 kPa, w2 = 0.65	11.2429 ± 0.59
279 K, 193.1 kPa, w2 = 0.65	4.7818 ± 0.52
279 K, 253.6 kPa, w2 = 0.65	6.3584 ± 0.53
279 K, 331.6 kPa, w2 = 0.65	8.4549 ± 0.55
279 K, 555.1 kPa, w2 = 0.65	14.9493 ± 0.61
279.04 K, 478.7 kPa, w2 = 0.55	13.5464 ± 0.65
279.05 K, 201 kPa, w2 = 0.6	5.1513 ± 0.53
279.05 K, 264.1 kPa, w2 = 0.6	6.8498 ± 0.55
279.06 K, 152.4 kPa, w2 = 0.6	3.874 ± 0.53
279.06 K, 345.5 kPa, w2 = 0.6	9.1083 ± 0.58
279.06 K, 369.2 kPa, w2 = 0.55	10.1866 ± 0.6
279.06 K, 448.9 kPa, w2 = 0.6	12.1114 ± 0.61
279.06 K, 577.6 kPa, w2 = 0.6	16.1046 ± 0.65
279.07 K, 163.6 kPa, w2 = 0.55	4.3324 ± 0.55
279.07 K, 282.8 kPa, w2 = 0.55	7.6605 ± 0.58
279.08 K, 215.4 kPa, w2 = 0.55	5.7608 ± 0.56
280.01 K, 670.7 kPa, w2 = 0.4	22.729 ± 0.8
280.02 K, 180.8 kPa, w2 = 0.4	5.41974 ± 0.63
280.02 K, 237.8 kPa, w2 = 0.4	7.21933 ± 0.65
280.02 K, 311.5 kPa, w2 = 0.4	9.61644 ± 0.67
280.02 K, 405.9 kPa, w2 = 0.4	12.8096 ± 0.71
280.02 K, 524.7 kPa, w2 = 0.4	17.0629 ± 0.76
280.17 K, 150 kPa, w2 = 0.45	4.28073 ± 0.61
280.17 K, 197.2 kPa, w2 = 0.45	5.70206 ± 0.62
280.17 K, 436.6 kPa, w2 = 0.45	13.4767 ± 0.7
280.18 K, 257.8 kPa, w2 = 0.45	7.59526 ± 0.63
280.18 K, 336.4 kPa, w2 = 0.45	10.1172 ± 0.66
280.18 K, 562.4 kPa, w2 = 0.45	17.9508 ± 0.69
280.2 K, 176.2 kPa, w2 = 0.5	4.88417 ± 0.64
280.2 K, 228 kPa, w2 = 0.5	6.50598 ± 0.63
280.2 K, 295.2 kPa, w2 = 0.5	8.66625 ± 0.66
280.2 K, 382.2 kPa, w2 = 0.5	11.5437 ± 0.69
280.2 K, 490.7 kPa, w2 = 0.5	15.3768 ± 0.75
280.2 K, 626.5 kPa, w2 = 0.5	20.4828 ± 0.77
282.96 K, 514.9 kPa, w2 = 0.6	16.8632 ± 0.73
282.98 K, 397.4 kPa, w2 = 0.6	10.4251 ± 0.89
282.98 K, 629.9 kPa, w2 = 0.6	18.4329 ± 0.21
282.99 K, 232 kPa, w2 = 0.6	5.8957 ± 0.53
282.99 K, 301.9 kPa, w2 = 0.65	7.5146 ± 0.53
282.99 K, 304.4 kPa, w2 = 0.6	7.8397 ± 0.55
